Test results from US20100247659A1, “PHENYLPHTHALIMIDE ANALOGS FOR TREATING DIABETIC MACULAR EDEMA” (Charlesson, LLC, priority 2007, published 2010).

Legend:
normal BN rats = experiment: Ocular toxicity, ERG recording; assay type: in vivo, rat; settings: 2 μg/eye intravitreal, weeks 1-4
Procedure: Electroretinogram (ERG) recording: Full-field ERGs were recorded by Espion E^2 ERG system (Diagnosys LLC) as described previously (Rohrer, Journal of Neuroscience, 1999, 19: […]) by two protocols: (A) 10 ms flashes of increasing light intensities under scotopic and photopic conditions, and (B) 2 Hz flicker ERG under photopic conditions. BN rats received an intravitreal injection of Compound 4 (2.0 μg/eye, 5 μl/eye of 0.4 mg/ml in BN rat serum) or equal amount of BN rat serum, respectively. At various intervals after injection, the peak a-wave amplitude was measured from baseline to the initial negative-going voltage, whereas peak b-wave amplitude was measured from the trough of the a-wave to the peak of the positive b-wave. Flicker amplitudes were measured from the preceding trough to the peak of the flicker response. Data was expressed as mean±SD and compared between the compound-injected eyes and control eyes by the paired Student's t-test.
To test the potential ocular toxicities of Compound 4, normal rats at age of 8 weeks received an intravitreal injection of a high dose of Compound 4, 2 μg/eye (5 μl/eye of 0.4 mg/ml in BN rat serum) or an equal amount of BN rat serum as the vehicle control. Prior to study initiation, and after weeks 1, 2, 3, and 4 following the injection, visual function was evaluated by ERG recording. […]

[1] = Drying at elevated temperature; assay type: physicochemical; settings: 70° C., 89 h
Procedure: Synthesis of Compound 4 was successfully carried out via catalytic hydrogenation and via transfer hydrogenation. Catalytic hydrogenation required a longer reaction time (24 h) under 45-50 psi. This method requires specialized equipment. […] Scale-up of this reaction gave 99.2% pure material in 91% yield.
A 12 L, 3-neck round bottom flask, equipped appropriately and under nitrogen, was charged with a slurry of 10% palladium on carbon (24.5 g, 10% (w/w)) in ethanol (200 proof, 1 L). To this slurry was charged (2,6-diisopropylphenyl)-5-nitro-1H-isoindole-1,3-dione (245.0 g, 0.70 mol) followed by ethanol (200 proof, 2.92 L, 3.92 L total, 16 mL/g) and triethylamine (311.7 g, 3.08 mol, 4.40 eq). Formic acid (135.8 g, 2.95 mol, 4.22 eq) was added slowly over 25 min. The slurry was heated to reflux and the reaction progress was monitored by HPLC. At 3.5 h, the mixture was filtered through a Celite bed to remove the catalyst. The filter bed was rinsed with ethanol (200 proof, 4×175 mL). The filtrate was then clarified through Whatman filter paper to remove any particulates. Ethanol (200 proof, 2×150 mL) was used as a rinse. To the solution was added water (deionized, 3.92 L), over 45 min. The resulting slurry was stirred at ambient temperature overnight. The following day, the slurry was cooled to 0-10° C. for 2 h. […]

STZ-diabetic rats = settings: cited from earlier work
OIR rats = experiment: Retinal NV in OIR rats, fluorescein angiography; assay type: in vivo, rat
From the text: Induction of oxygen-induced retinopathy (OIR): Induction of OIR followed the procedure as described by Smith et al (Smith, et al. Invest. Opthalmol. Vis. Sci. 1994, 35: 101-111) with some modifications. Briefly, Newborn Brown Norway (BN) rats (Charles River Laboratories) at postnatal day 7 (P7) were exposed to hyperoxia (75% O2) for 5 days (P7-12) and then returned to normoxia (room air) to induce retinopathy.
Retinal angiography with high-molecular-weight fluorescein: High molecular weight fluorescein-dextran was used in retinal angiography as described by Smith et al (Smith, et al. Invest. Opthalmol. Vis. Sci. 1994, 35:101-111). Briefly, animals were anesthetized with ketamine (100 mg/kg of body weight) plus acepromazine (5 mg/kg of body weight) and then perfused through the left ventricle with 50 mg/ml of high molecular weight fluorescein-dextran in PBS. The eyes were marked for orientation, enucleated, and fixed in 4% paraformaldeyde for 3-24 h. Several incisions were made and the retinas were flat-mounted on a gelatin-coated slide. The vasculature was then examined under a fluorescent microscope. Both the total retinal area and the area of the avascular regions were measured using a computerized image-analysis system and averaged within each group.
Newborn BN rats were exposed to 75% oxygen from age P7 to P12. […]

HUVECs = experiment: Tube formation assay on matrigel; assay type: cell-based, human; settings: 5 μM, 16 h
Procedure: Eight-well slide chambers were coated with matrigel and at 37° C. and 5% CO2 for 30 min. HUVECs were then seeded at 30,000 cells/well in EGM-II containing either vehicle (0.5% DMSO), 5 μM of Compound 4 or thalidomide and incubated at 37° C. and 5% CO2 for 16 h. After incubation, slides were washed in PBS, fixed in 100% methanol for 10 s, and stained with DiffQuick solution II for 2 min. To analyze tube formation, each well was digitally photographed using a ×2.5 objective.
Representative images were captured after incubation of vehicle, thalidomide and Compound 4 for 16 h.

SMILES: CC(C)c1cccc(C(C)C)c1N1C(=O)c2ccc(N)cc2C1=O [Compound 4]
- ERG a-wave and b-wave amplitudes (normal BN rats): no detectable change in the a-wave and b-wave amplitudes
- stability on drying [1]: does not cause decomposition

SMILES: O=C1CCC(N2C(=O)c3ccccc3C2=O)C(=O)N1 (stereo not shown) [thalidomide]
- VEGF in ocular fluid (STZ-diabetic rats): blocked the increase of VEGF in ocular fluid
- thickening of retinal capillary basement membrane (STZ-diabetic rats): inhibited the thickening of retinal capillary basement membrane
- inhibition of retinal NV (OIR rats; 1.0 μg/eye intravitreal, evaluated P20): lacked significant inhibition of retinal NV
- effect on retinal NV, angiographs (FIG. 9) (OIR rats; 5 μl of 0.8 mM per eye, angiography): did not reduce the NV
- inhibition of tube formation (HUVECs): did not show any inhibitory activity
